The IC50 is the midpoint of a concentration-inhibition curve.

Some results are limits rather than exact numbers.

We go through two molecules from patent publication US7582655B2, “Antineoplastic compounds” (University of Saskatchewan, priority 2005, dated 2009).

One data set has as its system HCC 2998. Nature of the data set: Human tumour cell line panel, colon cancer HCC 2998. Format: cell-based. Conditions: 48 h; read-out: Colon cancer cells, IC50(μM) HCC 2998. Here is the method: (§1) In addition, both 5-fluorouracil and melphalan were evaluated towards 57 cell lines. […] MG MID is the average of the potencies of the compound to approximately 50 neoplastic cell lines.

The next data set relates to RPMI 8226. Nature of the data set: Human tumour cell line panel, leukemic RPMI 8226. Conditions: 48 h; read-out: Leukemic cells, IC50(μM) RPMI 8226. Format: cell-based. How it is done:
as §1

For a further data set, the system named is SW 620. Nature of the data set: Human tumour cell line panel, colon cancer SW 620. It is filed as cell-based. Conditions: 48 h; read-out: Colon cancer cells, IC50(μM) SW 620. How it is done: as §1
Data set [1] relates to human squamous cell carcinomas HSC-2. Nature of the data set: Cytotoxicity CC50, MTT assay, HSC-2. An outline of the steps: (§2)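 Tumour cells and normal oral cells (HGF, HPC, HPLF; 3-7 population doublings) exposed to graded compound concentrations for 24 h. Viability by MTT absorbance at 540 nm, or by trypan blue exclusion with haemocytometer counting for HL-60; CC50 derived from dose-response curves.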
For orientation: Tetrazolium dyes change colour on reduction, which living cells bring about.

Data set [2] relates to human gingival fibroblasts (HGF). As to the kind of experiment: in vitro.
For another data set, the system named is HCT 116. As to the kind of experiment: Human tumour cell line panel, colon cancer HCT 116. Conditions: 48 h; read-out: Colon cancer cells, IC50(μM) HCT 116. Format: cell-based. Here is the method: as §1
Data set [3] concerns human periodontal ligament fibroblasts (HPLF). Nature of the data set: in vitro.
A further data set concerns human pulp cells (HPC). As to the kind of experiment: in vitro.
For another data set, the system named is HL 60. Nature of the data set: Human tumour cell line panel, leukemic HL 60. It is filed as cell-based. Conditions: 48 h; read-out: Leukemic cells, IC50(μM) HL 60. Here is the method:
as §1

A further data set deals with SR. Nature of the data set: Human tumour cell line panel, leukemic SR. Format: cell-based. Conditions: 48 h; read-out: Leukemic cells, IC50(μM) SR. Here is the method: as §1
Another data set concerns KM 12. Nature of the data set: Human tumour cell line panel, colon cancer KM 12. Format: cell-based. Conditions: 48 h; read-out: Colon cancer cells, IC50(μM) KM 12. Here is the method: as §1
The next data set relates to HCT 15. Nature of the data set: Human tumour cell line panel, colon cancer HCT 15. Format: cell-based. Conditions: 48 h; read-out: Colon cancer cells, IC50(μM) HCT 15. How it is done: as §1
For data set [4], the system named is human squamous cell carcinomas HSC-4. As to the kind of experiment: Cytotoxicity CC50, MTT assay, HSC-4. An outline of the steps:
as §2

For the next data set, the system named is K 562. As to the kind of experiment: Human tumour cell line panel, leukemic K 562. It is filed as cell-based. Conditions: 48 h; read-out: Leukemic cells, IC50(μM) K 562. How it is done:
as §1

In data set [5] the test system is murine L-5178 lymphoma cells transfected with the human MDR1 gene. Nature of the data set: MDR reversal, rhodamine 123 fluorescence activity ratio. Conditions: FAR >1 indicates MDR reversal; for FAR value 4 μg/ml: compound 4 μg/ml; for FAR value 40 μg/ml: compound 40 μg/ml.
Data set [6] relates to HSC-2, HSC-4 and HL-60 malignant cells. Nature of the data set: Average CC50 for malignant cells. An outline of the steps: as §2
Data set [7] deals with human promyelocytic leukemia HL-60. Nature of the data set: Cytotoxicity CC50, trypan blue exclusion, HL-60. An outline of the steps:
as §2

For the next data set, the system named is human tumour cell lines. Nature of the data set: Panel of human tumour cell lines, all cell lines (mean graph midpoint). Conditions: mean graph midpoint, average of 49 (38-59) human tumour cell lines, 48 h incubation; read-out: All cell lines IC50. It is filed as cell-based. Here is the method:
A number of compounds of the invention were further assessed against numerous human malignant cell lines. An average of 49 cell lines from nine different neoplastic diseases, namely leukemia, melanoma, non-small cell lung, colon, central nervous system, ovarian, renal, prostate, and breast cancers were employed.
as §1

A further data set relates to COLO 205. As to the kind of experiment: Human tumour cell line panel, colon cancer COLO 205. It is filed as cell-based. Conditions: 48 h; read-out: Colon cancer cells, IC50(μM) COLO 205. How it is done:
as §1

`O=C1C(=Cc2ccccc2)CNCC1=Cc1ccccc1` [Compound 1a]: the IC50 in the data set on HCC 2998 is 2 µM; in the data set with RPMI 8226 it was 0.275 µM; in the data set with SW 620 it was 0.575 µM; in the data set on HCT 116 it was 0.182 µM; in the data set on HL 60 it was 0.363 µM; with SR, 0.209 µM. Moreover, the IC50 in the data set with KM 12 was determined as 0.794 µM; with HCT 15, 0.631 µM; in the data set on K 562 it was 0.49 µM; with human tumour cell lines it was 1.62 µM; in the data set on COLO 205, 1.55 µM. Besides, the CC50 in data set [1] worked out at 2.2 µM; in [2] it was 20 µM; in data set [3] it was 24 µM; with human pulp cells (HPC), 38 µM; in data set [4], 4.4 µM; in data set [7] it was 1.5 µM. In [5], the “FAR value 4 μg/ml” value worked out at 1.58. In addition, the “FAR value 40 μg/ml” value in data set [5] is 2.00. In addition, the “CC50(μM) ave” value in [6] came out at 2.7 µM.
Regarding `CC[N+](C)(CC)CCOc1ccc(C(=O)N2CC(=Cc3ccccc3)C(=O)C(=Cc3ccccc3)C2)cc1.[I-]` [Compound 7a, 1-[4-(2-Diethylaminoethoxy)phenylcarbonyl]-3,5-bis(phenylmethylene)-4-piperidone methoiodide], the IC50 was 28.2 µM in the data set on HCC 2998; 17.4 µM with RPMI 8226; 30.2 µM in the data set with SW 620; above 50.1 µM with HCT 116; above 50.1 µM in the data set with HL 60; 38 µM with SR. In addition, the IC50 is 43.7 µM in the data set on KM 12; above 50.1 µM in the data set on HCT 15; 43.7 µM with K 562; above 41.7 µM in the data set on human tumour cell lines; 20.4 µM in the data set with COLO 205. Moreover, the CC50 in [1] came out at 130 µM; in [2], 160 µM; in data set [3] it was 79 µM; in the data set on human pulp cells (HPC), 170 µM; in [4], 82 µM; in [7], 82 µM. In addition, the “FAR value 4 μg/ml” value in data set [5] is recorded as 1.37. Besides, in data set [5], the “FAR value 40 μg/ml” value was 1.05. Besides, in [6], the “CC50(μM) ave” value is 98 µM.
